Bridge positions count the residues as written; N and C are the ends. Square brackets hold non-standard residues; d marks the D form. Peptide text beside a SMILES is read from it. I, II: the chains in the order shown. N(4-MeOBn)Gly = COc1ccc(CNCC(=O)O)cc1; Nleu = CC(C)CNCC(=O)O; Nlys = NCCCCNCC(=O)O; Nme = COCCNCC(=O)O
Key:
[1] = system: IL-15; assay: CTLL-2 proliferation assay (WST-1); format: cell-based, murine
Description: (§1) FIGS. 7A-C. IFRA3Q1 inhibits the IL-15 activity. To determine if IFRA3 and its derivatives can regulate the function of IL-15, the inventors performed CTLL-2 proliferation assay. The proliferation of murine T cell line CTLL-2 depends on the presence and activity of IL-15. CTLL-2 cells were seeded into 96-well plates and treated with IL-15 in the presence or absence of IFRA3D1, IFRA3T1, or IFRA3Q1 at indicated concentrations for 72 hours. CTLL-2 cell proliferation was measured by WST-1 assay.
as §1, with “To determine” for “FIGS. 7A-C. IFRA3Q1 inhibits the IL-15 activity. To determine”, “WST-1 assay. […] IFRA3 and its derivatives had no effects on cell proliferation by themselves.” for “WST-1 assay.”

[2] = target: T1, IL-15 receptor a (IL15RA) (Homo sapiens, UniProt Q13261); assay: in vitro pull-down assay with peptoid-conjugated beads and HeLa cell lysates, Coomassie staining and western blot; format: binding; settings: beads conjugated with compound, 4° C. overnight; band identity confirmed by western blot
T1 construct: Cell lysates from IL-15RA positive HeLa cells (expressing IL15RA) or IL-15RA negative HeLa cells (transfected with IL15RA siRNA to knock down IL15RA); endogenous in cells; host or cells: HeLa
T1 sequence (Q13261 31-267): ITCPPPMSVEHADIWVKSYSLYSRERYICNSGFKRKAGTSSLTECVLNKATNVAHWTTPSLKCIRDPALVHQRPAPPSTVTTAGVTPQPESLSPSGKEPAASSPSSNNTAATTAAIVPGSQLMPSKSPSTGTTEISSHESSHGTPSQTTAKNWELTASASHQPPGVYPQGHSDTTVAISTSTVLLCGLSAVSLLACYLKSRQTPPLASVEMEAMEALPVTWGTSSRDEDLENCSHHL
Description: FIGS. 2A-B. Confirmation of the binding of IFRA3 to IL-15 receptor a subunit. […] Cell lysates from IL-15RA positive HeLa cells (expressing IL15RA) or IL-15RA negative HeLa cells (transfected with IL15RA siRNA to knock down IL15RA) were incubated with beads conjugated with IFRA1, or IFRA2, or IFRA3 at 4° C. overnight. The beads were then washed with RIPA buffer for 3 times, and the binding proteins were eluted with 1% SDS. The yielded lysates were then applied onto 12% SDS-PAGE gel and subjected to Coomassie blue staining. (FIG. 2B) Protein in the gel was transferred to membrane and identified by western blotting analysis with antibody against IL-15RA.
Cell lysates from IL-15RA positive HeLa cells (expressing IL15RA) or IL-15RA negative HeLa cells (transfected with IL15RA siRNA to knock down IL15RA) were incubated with beads conjugated with IFRA1, or IFRA2, or IFRA3 at 4° C. overnight. The beads were then washed with RIPA buffer for 3 times, and the binding proteins were eluted with 1% SDS. The yielded lysates were then applied onto 12% SDS-PAGE gel and subjected to Coomassie blue staining. Protein in the gel was transferred to membrane and identified by western blotting analysis with antibody against IL-15RA. […] Western blot results confirmed the identity of the protein band as IL15RA. Thus, the data support that IFRA3 can bind to IL15RA.

[3] = target: T2, IL-15 Rα (Homo sapiens, UniProt Q13261); assay: on-bead two-color (OBTC) screening and validation with IL-15Rα expressing and non-expressing HeLa cells; format: cell-based
T2 construct: Cell lysates from IL-15RA positive HeLa cells (expressing IL15RA) or IL-15RA negative HeLa cells (transfected with IL15RA siRNA to knock down IL15RA); endogenous in cells; host or cells: HeLa
T2 sequence (Q13261 31-267): as above
Description: FIGS. 1A-C. Discovery of the IL-15 receptor a subunit-binding compound IFRA3 through OBTC screening of a peptoid library. To identify compounds that can bind to IL-15 receptor, the inventors performed an on-bead two-color (OBTC) screening experiment. HeLa cells expressing IL-15 Rα were stained with red Qdot® […] nanocrystals and HeLa cells not expressing IL-15 Rα were stained with green Qdot® […] nanocrystals. One million green cells and one million red cells were mixed and incubated for 1 hour with 50,000 peptoid compound library beads containing one-compound on one bead at 23° C. Beads that bind to only red cells but not green cells were isolated under fluorescent microscope and the compound attached to the bead was identified by mass spectrometry. (FIG. 1A) Illustration of the OBTC screening mechanism. (FIG. 1B) One example of the bead that binds only the red cells. (FIG. 1C) The chemical structure of IFRA3, one of the three hits discovered in this screening.
FIG. 3. Validation of the binding of IFRA3 to IL-15 receptor a subunit using OBTC. The compound IFRA3 was resynthesized on the beads and were incubated with IL-15 RA expressing HeLa cells (red stained) and IL-15RA negative HeLa cells (green stained) individually as well as 1:1 mixture of red and green cells. […]

binding to IL-15 receptor subunit a in OBTC screen (hit) ([3]; peptoid library beads, red IL-15Rα+ and green IL-15Rα- HeLa cells, 1 hour, 23° C.) | Structure (SMILES) | inhibition of IL-15-stimulated proliferation of CTLL-2 cells ([1]; with IL-15, 72 hours, WST-1) | pull-down of IL15RA from cell lysates [2] | binding of cells to beads with resynthesized compound (OBTC validation) ([3]; IL-15RA expressing (red) and negative (green) HeLa cells, individually and as 1:1 mixture) | effect on cell proliferation by themselves ([1]; CTLL-2 cells, compound alone without IL-15)
 | COCCN(CC(=O)NC(CCCCN)C(=O)NC(CCSC)C(=O)NCCCCC(NC(=O)C(CCCCNC(=O)C(CCSC)NC(=O)C(CCCCN)NC(=O)CN(CCOC)C(=O)CN(CCCCN)C(=O)CN(CCCCN)C(=O)CN(CCOC)C(=O)CN(Cc1ccc(OC)cc1)C(=O)CNCC(C)C)NC(=O)C(CCSC)NC(=O)C(CCCCN)NC(=O)CN(CCOC)C(=O)CN(CCCCN)C(=O)CN(CCCCN)C(=O)CN(CCOC)C(=O)CN(Cc1ccc(OC)cc1)C(=O)CNCC(C)C)C(N)=O)C(=O)CN(CCCCN)C(=O)CN(CCCCN)C(=O)CN(CCOC)C(=O)CN(Cc1ccc(OC)cc1)C(=O)CNCC(C)C (centres unmarked) [IFRA3T1] (I: H-[Nleu][N(4-MeOBn)Gly][Nme][Nlys][Nlys][Nme]KMKK-NH2 / II: H-[Nleu][N(4-MeOBn)Gly][Nme][Nlys][Nlys][Nme]KM / III: H-[Nleu][N(4-MeOBn)Gly][Nme][Nlys][Nlys][Nme]KM; amide I:9-II:C, I:10-III:C; configuration not given here) | less effects |  |  | 
binds to the IL-15 receptor subunit a | COCCN(CC(=O)NC(CCCCN)C(=O)NC(CCSC)C(N)=O)C(=O)CN(CCCCN)C(=O)CN(CCCCN)C(=O)CN(CCOC)C(=O)CN(Cc1ccc(OC)cc1)C(=O)CNCC(C)C (centres unmarked) [IFRA3] (H-[Nleu][N(4-MeOBn)Gly][Nme][Nlys][Nlys][Nme]KM-NH2; configuration not given here) |  | can pull down a protein band corresponding to the size of IL15RA | only red cells bind to the beads, and the green cells do not bind | no effects
